The test addresses T1, rat PXR (rPXR) (Rattus norvegicus, UniProt Q9R1A7).
T1 construct: gene Nr1i2
T1 sequence (Q9R1A7 143-431 limits assumed): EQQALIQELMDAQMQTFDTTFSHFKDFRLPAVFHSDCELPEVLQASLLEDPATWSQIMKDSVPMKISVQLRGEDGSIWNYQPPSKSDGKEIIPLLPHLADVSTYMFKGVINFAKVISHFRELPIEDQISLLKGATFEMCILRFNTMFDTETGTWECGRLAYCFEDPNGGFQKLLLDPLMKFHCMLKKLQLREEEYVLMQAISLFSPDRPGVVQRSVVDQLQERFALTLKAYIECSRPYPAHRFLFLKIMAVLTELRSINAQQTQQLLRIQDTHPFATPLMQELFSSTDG
As to the kind of experiment: GAL4-LBD luciferase reporter assay in HepG2 cells, […] CBD. Format: cell-based.

These results are taken from PMC11217338 (Frontiers in Endocrinology, 2024).

On to `C=C(C)[C@@H]1CCC(C)=C[C@H]1c1c(O)cc(CCCCC)cc1O` [CBD, Cannabidiol], for which the “GAL4-LBD luciferase reporter assay in HepG2 cells, 10 μM CBD” value is reported as “Except for PXRs, CBD had little effect on activation of the other tested nuclear receptors”.
